Legend:
[1] = target: T1, Carbonic anhydrase 9 (Homo sapiens, UniProt Q16790)
[2] = target: Carbonic anhydrase 12 (Homo sapiens, UniProt O43570)
[3] = target: T2, Carbonic anhydrase 1 (Homo sapiens, UniProt P00915)
[4] = target: Carbonic anhydrase 2 (Homo sapiens, UniProt P00918)
[5] = target: T1, Carbonic anhydrase 9; remark: listed apart in the source
[6] = tested on: Ca9-22; test: cells; format: functional; settings: Homo sapiens, time 48 hrs
Description: Cytotoxicity against human Ca9-22 cells assessed as cell growth inhibition measured after 48 hrs by MTT assay

[7] = target: T2, Carbonic anhydrase 1; remark: listed apart in the source

T2 sequence (P00915 whole entry): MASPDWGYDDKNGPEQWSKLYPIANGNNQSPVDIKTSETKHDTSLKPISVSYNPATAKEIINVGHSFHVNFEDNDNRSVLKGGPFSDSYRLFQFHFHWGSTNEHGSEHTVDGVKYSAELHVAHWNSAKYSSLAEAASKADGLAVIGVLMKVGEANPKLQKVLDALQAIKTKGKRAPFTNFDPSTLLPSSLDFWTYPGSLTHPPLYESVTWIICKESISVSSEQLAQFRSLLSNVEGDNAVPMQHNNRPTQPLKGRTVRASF
Chain of Carbonic anhydrase 12 (O43570 whole entry): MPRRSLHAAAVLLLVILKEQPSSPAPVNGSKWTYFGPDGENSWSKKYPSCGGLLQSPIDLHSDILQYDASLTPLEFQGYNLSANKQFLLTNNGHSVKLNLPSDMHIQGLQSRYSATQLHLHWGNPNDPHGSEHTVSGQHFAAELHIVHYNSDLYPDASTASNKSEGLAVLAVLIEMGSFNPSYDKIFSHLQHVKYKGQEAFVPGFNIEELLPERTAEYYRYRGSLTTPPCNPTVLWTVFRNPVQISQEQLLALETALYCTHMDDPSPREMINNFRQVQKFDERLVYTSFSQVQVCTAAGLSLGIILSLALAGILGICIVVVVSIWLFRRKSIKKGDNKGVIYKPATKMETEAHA

C/C(=N\NC(=O)c1ccc(S(N)(=O)=O)cc1)c1ccc(N2C(=O)c3ccccc3C2=O)cc1
Ki [1]: 17.3 nM

NS(=O)(=O)c1ccc(CCNC(=O)CSc2nc3ccc(I)cc3c(=O)n2Cc2ccccc2)cc1
Ki [2]: 5.2 nM

O=S1(=O)CC=Cc2cc(-c3ccc(C(F)(F)F)cc3)ccc2O1
Ki [3]: > 100000 nM | Ki [4]: > 100000 nM

COc1ccc(C(=O)N2C(=O)/C(=N\NC(=O)CNc3ccc(S(N)(=O)=O)cc3)c3ccccc32)cc1
Ki [2]: 22.3 nM

O=S1(=O)CC=Cc2ccc(-c3ccccc3)cc2O1
Ki [3]: > 100000 nM | Ki [4]: > 100000 nM

CC(C)(C)OC(=O)C[C@H](Cc1ccccc1)C(=O)CCC(=O)NCc1ccc(S(N)(=O)=O)cc1
Ki [1]: 1.8 nM

NS(=O)(=O)c1ccc(CCn2c(SCc3ccc(F)cc3)nc3ccccc3c2=O)cc1
Ki [5]: 19.3 nM

O=S1(=O)CC=Cc2cc(-c3ccc(F)cc3)ccc2O1
Ki [3]: > 100000 nM | Ki [4]: > 100000 nM

COc1ccc(C2CC(c3ccc(F)cc3)=NN2c2ccc(S(N)(=O)=O)cc2)c(OC)c1OC (stereo not given)
CC50 [6]: 6300 nM | Ki [7]: > 230 nM | Ki [1]: > 44 nM | Ki [2]: > 9 nM

C/C(=N\NC(=O)c1ccc(S(N)(=O)=O)cc1)c1ccc(N2C(=O)C3CC=CCC3C2=O)cc1 (stereo not given)
Ki [1]: 17.3 nM

C/C(=N\O)c1ccc(N2C(=O)c3cc(Cl)c(Cl)cc3C2=O)cc1
Ki [1]: 169 nM

CN1C(=O)/C(=N\c2ccc(S(N)(=O)=O)cc2)c2ccccc21
Ki [1]: 13.9 nM | Ki [2]: 34.3 nM

O=S1(=O)CC=Cc2ccc(-c3ccc(C(F)(F)F)cc3)cc2O1
Ki [3]: > 100000 nM | Ki [4]: > 100000 nM

O=S1(=O)C=Cc2cc(-n3nncc3-c3ccc(F)cc3)ccc2O1
Ki [1]: 6.9 nM

NS(=O)(=O)c1ccc(/N=C2\C(=O)N(Cc3ccccc3)c3ccccc32)cc1
Ki [1]: 13.9 nM | Ki [2]: 34.3 nM

Cc1ccc(-c2cc(C(F)(F)F)nn2-c2ccc(S(N)(=O)=O)cc2)cc1 [CELECOXIB]
Ki [1]: 14.8 nM

C=CCN1C(=O)/C(=N\Nc2ccc(S(N)(=O)=O)cc2)c2ccccc21
Ki [2]: 34.3 nM

CCOC(=O)c1ccc(-c2ccc3c(c2)OS(=O)(=O)CC=C3)cc1
Ki [3]: > 100000 nM | Ki [4]: > 100000 nM

C/C(=N\O)c1ccc(N2C(=O)C3C(C2=O)C2(Cl)C(Cl)=C(Cl)C3(Cl)C2(Cl)Cl)cc1 (stereo not given)
Ki [1]: 169 nM

COc1cc(C2CC(c3ccc(C(F)(F)F)cc3)=NN2c2ccc(S(N)(=O)=O)cc2)cc(OC)c1OC (stereo not given)
CC50 [6]: 6300 nM | Ki [7]: > 230 nM | Ki [1]: > 44 nM | Ki [2]: > 9 nM

O=S1(=O)CC=Cc2ccc(Br)cc2O1
Ki [3]: > 100000 nM | Ki [4]: > 100000 nM

O=S1(=O)CC=Cc2cccc(-c3ccc(C(F)(F)F)cc3)c2O1
Ki [3]: > 100000 nM | Ki [4]: > 100000 nM

CN1C(=O)/C(=N\Nc2ccc(S(N)(=O)=O)cc2)c2ccccc21
Ki [1]: 13.9 nM

C=CCN1C(=O)/C(=N\NC(=O)CNc2ccc(S(N)(=O)=O)cc2)c2ccccc21
Ki [1]: 13.9 nM | Ki [2]: 34.3 nM

C/C(=N\NC(=O)c1ccc(S(N)(=O)=O)cc1)c1ccc(N2C(=O)c3cc(Cl)c(Cl)cc3C2=O)cc1
Ki [1]: 169 nM

C=CCN1C(=O)/C(=N\c2ccc(S(N)(=O)=O)cc2)c2ccccc21
Ki [1]: 13.9 nM | Ki [2]: 34.3 nM

C/C(=N\NC(=O)c1ccc(S(N)(=O)=O)cc1)c1ccc(N2C(=O)C3C(C2=O)C2(Cl)C(Cl)=C(Cl)C3(Cl)C2(Cl)Cl)cc1 (stereo not given)
Ki [1]: 17.3 nM

C/C(=N\O)c1ccc(N2C(=O)c3c(Cl)c(Cl)c(Cl)c(Cl)c3C2=O)cc1
Ki [1]: 169 nM

C/C(=N\O)c1ccc(N2C(=O)C3CC=CCC3C2=O)cc1 (stereo not given)
Ki [1]: 169 nM

CC(C)[C@@H](CC(=O)[C@@H](C)CC(=O)OCc1ccccc1)C(=O)NCc1ccc(S(N)(=O)=O)cc1
Ki [2]: 7.4 nM

COc1cc(OC)c(C2CC(c3ccccc3)=NN2c2ccc(S(N)(=O)=O)cc2)cc1OC (stereo not given)
CC50 [6]: 6300 nM | Ki [7]: > 230 nM | Ki [1]: > 44 nM | Ki [2]: > 9 nM

COc1cc(OC)c(C2CC(c3ccc(C(F)(F)F)cc3)=NN2c2ccc(S(N)(=O)=O)cc2)cc1OC (stereo not given)
CC50 [6]: 6300 nM | Ki [7]: > 230 nM | Ki [1]: > 44 nM | Ki [2]: > 9 nM

CCN1C(=O)/C(=N\Nc2ccc(S(N)(=O)=O)cc2)c2ccccc21
Ki [1]: 23.6 nM

CN1C(=O)/C(=N\NC(=O)CNc2ccc(S(N)(=O)=O)cc2)c2ccccc21
Ki [1]: 13.9 nM | Ki [2]: 34.3 nM

C/C(=N\NC(=O)c1ccc(S(N)(=O)=O)cc1)c1ccc(N2C(=O)c3ccc(C(C)(C)C)cc3C2=O)cc1
Ki [1]: 83.8 nM

COc1ccc(C2CC(c3ccc(Cl)cc3)=NN2c2ccc(S(N)(=O)=O)cc2)c(OC)c1OC (stereo not given)
CC50 [6]: 6300 nM | Ki [7]: > 230 nM | Ki [1]: > 44 nM | Ki [2]: > 9 nM

Cc1ccc(C(=O)/C=C/Nc2ccc(S(N)(=O)=O)cc2)cc1
Ki [5]: 0.21 nM

C/C(=N\NC(=O)c1ccc(S(N)(=O)=O)cc1)c1ccc(N2C(=O)c3ccc(C)cc3C2=O)cc1
Ki [1]: 17.3 nM

C/C(=N\O)c1ccc(N2C(=O)c3ccc(C(C)(C)C)cc3C2=O)cc1
Ki [1]: 169 nM

COc1cc(OC)c(C2CC(c3ccc(Cl)cc3)=NN2c2ccc(S(N)(=O)=O)cc2)cc1OC (stereo not given)
CC50 [6]: 6300 nM | Ki [7]: > 230 nM | Ki [1]: > 44 nM | Ki [2]: > 9 nM

NS(=O)(=O)c1cccc(-c2nc(-c3cccnc3)no2)c1
Ki [1]: 1.2 nM

COc1cc(C2CC(c3ccccc3)=NN2c2ccc(S(N)(=O)=O)cc2)cc(OC)c1OC (stereo not given)
CC50 [6]: 6300 nM | Ki [7]: > 230 nM | Ki [1]: > 44 nM | Ki [2]: > 9 nM

C/C(=N\NC(=O)c1ccc(S(N)(=O)=O)cc1)c1ccc(N2C(=O)c3c(Br)c(Br)c(Br)c(Br)c3C2=O)cc1
Ki [1]: 17.3 nM

COc1ccc(C2CC(c3cccs3)=NN2c2ccc(S(N)(=O)=O)cc2)c(OC)c1OC (stereo not given)
CC50 [6]: 6300 nM | Ki [7]: > 230 nM | Ki [1]: > 44 nM | Ki [2]: > 9 nM

CCN1C(=O)/C(=N\c2ccc(S(N)(=O)=O)cc2)c2ccccc21
Ki [1]: 13.9 nM | Ki [2]: 34.3 nM

COc1ccc(C2CC(c3ccc(Br)cc3)=NN2c2ccc(S(N)(=O)=O)cc2)c(OC)c1OC (stereo not given)
CC50 [6]: 6300 nM | Ki [7]: > 230 nM | Ki [1]: > 44 nM | Ki [2]: > 9 nM

NS(=O)(=O)c1ccc(N/N=C2\C(=O)N(Cc3ccccc3)c3ccccc32)cc1
Ki [1]: 13.9 nM

COc1ccc2nc(S/C(=N/Nc3ccc(S(N)(=O)=O)cc3)C(C)=O)n(-c3ccccc3)c(=O)c2c1
Ki [1]: 1.6 nM

COc1cc(OC)c(C2CC(c3ccc(Br)cc3)=NN2c2ccc(S(N)(=O)=O)cc2)cc1OC (stereo not given)
CC50 [6]: 6300 nM | Ki [7]: > 230 nM | Ki [1]: > 44 nM | Ki [2]: > 9 nM

C/C(=N\O)c1ccc(N2C(=O)c3c(Br)c(Br)c(Br)c(Br)c3C2=O)cc1
Ki [1]: 169 nM

COc1ccc(C2CC(c3ccc(C(F)(F)F)cc3)=NN2c2ccc(S(N)(=O)=O)cc2)c(OC)c1OC (stereo not given)
CC50 [6]: 6300 nM | Ki [7]: > 230 nM | Ki [1]: > 44 nM | Ki [2]: > 9 nM

CCN1C(=O)/C(=N\NC(=O)CNc2ccc(S(N)(=O)=O)cc2)c2ccccc21
Ki [2]: 34.3 nM

COc1cc(OC)c(C2CC(c3cccs3)=NN2c2ccc(S(N)(=O)=O)cc2)cc1OC (stereo not given)
CC50 [6]: 6300 nM | Ki [7]: > 230 nM | Ki [1]: > 44 nM | Ki [2]: > 9 nM

COc1ccc(C2CC(c3ccccc3)=NN2c2ccc(S(N)(=O)=O)cc2)c(OC)c1OC (stereo not given)
CC50 [6]: 6300 nM | Ki [7]: > 230 nM | Ki [1]: > 44 nM | Ki [2]: > 9 nM

C/C(=N\O)c1ccc(N2C(=O)c3ccc(C(=O)O)cc3C2=O)cc1
Ki [1]: 169 nM

NS(=O)(=O)c1ccc(N/C=C/C(=O)c2ccccc2)cc1
Ki [5]: 0.21 nM

COc1cc(C2CC(c3ccc(Br)cc3)=NN2c2ccc(S(N)(=O)=O)cc2)cc(OC)c1OC (stereo not given)
CC50 [6]: 6300 nM | Ki [7]: > 230 nM | Ki [1]: > 44 nM | Ki [2]: > 9 nM

NS(=O)(=O)c1ccc(NCC(=O)N/N=C2\C(=O)Nc3ccccc32)cc1
Ki [2]: 34.3 nM

COc1cc(C2CC(c3ccc(Cl)cc3)=NN2c2ccc(S(N)(=O)=O)cc2)cc(OC)c1OC (stereo not given)
CC50 [6]: 6300 nM | Ki [7]: > 230 nM | Ki [1]: > 44 nM | Ki [2]: > 9 nM

C/C(=N\O)c1ccc(N2C(=O)c3ccccc3C2=O)cc1
Ki [1]: 169 nM

C/C(=N\O)c1ccc(N2C(=O)c3ccc(C)cc3C2=O)cc1
Ki [1]: 169 nM

COc1cc(OC)c(C2CC(c3ccc(F)cc3)=NN2c2ccc(S(N)(=O)=O)cc2)cc1OC (stereo not given)
CC50 [6]: 6300 nM | Ki [7]: > 230 nM | Ki [1]: > 44 nM | Ki [2]: > 9 nM

NS(=O)(=O)c1ccc(NCC(=O)N/N=C2\C(=O)N(C(=O)c3ccccc3)c3ccccc32)cc1
Ki [1]: 65.3 nM

C/C(=N\NC(=O)c1ccc(S(N)(=O)=O)cc1)c1ccc(N2C(=O)c3ccc(C(=O)O)cc3C2=O)cc1
Ki [1]: 17.3 nM

— ChEMBL document CHEMBL5104090, “Recent advances in the medicinal chemistry of carbonic anhydrase inhibitors” (Eur J Med Chem, 2021)
